Measured values: patent US20050249697A1, “Compositions and methods for the inhibition of bone growth and resorption” (priority 2003, published 2005)
Read-outs that look alike come from different tables or passages of the source.

Legend:
[1] = Plasma diflunisal in rats after subcutaneous polydiflunisal microspheres or oral diflunisal; format: in vivo; settings: single oral dose
Source text: Processes for making nanoparticle formulations are also known in the art, and need not be fully described in this patent. The surface eroding property of polymers such as polydiflunisal makes for solid, non-porous particles, e.g. nano- and micro-spheres, useful for sustained drug delivery, and their release duration may be controlled by varying particle diameter, e.g. larger microparticles biodegrade more slowly than smaller ones. Nano- and microparticles for pharmaceutical formulations may be designed to deliver an agent(s) or compound(s) incorporated into the monomer, oligomer or polymer backbone and optionally an agent(s) blended, appended to, or dispersed in the polymer. […] Microparticle formulations of about 1, 2, 5, 7.5, 10, 25, 50 to about 10, 15, 30, 50, 75, 100, 250 μm are suitable for use in a pharmaceutical, veterinary or other type of formulations. Similarly, nanoparticle formulations may be administered for various applications, having a particle size about 1, 2, 5, 10 to about 15, 20, 30, 50, 100, 250, 500 nm, or various ranges between any two of these values. […]

[2] = in vivo; cited from earlier work
[3] = cited from earlier work
[4] = cited from earlier work; for Plasma Levels: Clinical Use, Anti-Inflammatory Effectiveness; for Plasma half-life: in vivo
[5] = tested on: Long Bone Critical Size Defect; assay: Long bone critical size defect model: bone formation and resorption; format: in vivo, Sprague Dawley retired breeder male rats; settings: implant of polymer microspheres containing ≧0.5 g salicylic acid/cm^3 in a femur
Source text: Nineteen (19) Sprague Dawley retired breeder male rats were employed in this experiment. In each animal, a 5 mm mid-shaft defect was created using an oscillating saw. The limbs were then stabilized using a custom 4-hole polymer plate and screws. In two groups of 6 rats each, the defects were filled with either the homopolymer or the copolymer. The remaining 7 rats had their defects filled with a collagen sponge to serve as controls. An equal number of animals from each group was sacrificed at 4 and 8 weeks post surgery. The only exception was that four control rats were used in the 8-week group. The defect sites were radiographed using a Hewlett-Packard Faxitron model 43804 and high resolution mammography film every 2 weeks until sacrifice. At term, the limbs were collected and prepared for non-decalcified histology. Mid-sagittal ground sections were prepared and stained using Sanderson's Rapid Bone Stain and Stevenel's Blue. New bone formed between inner-most fixation screws was measured on 2 slides per animal and averaged. Bone resorption, or loss, was also measured by approximating the original contours of the cortices, and measuring the difference in area relative to the remaining bone.

[6] = cited from earlier work; remark: listed apart in the source
[7] = cited from earlier work; remark: listed apart in the source

## O=C(O)c1cc(-c2ccc(F)cc2F)ccc1O [Diflunisal, 5-(2,4-difluoro-phenyl) salicylic acid]
[1]
  plasma drug level after dosing: declined rapidly
[2]
  LD50: 439 mg/kg
[3]
  Water Solubility: Very Low
[4]
  Plasma Levels: 50 to 190 µg/mL
  Plasma half-life: 8 to 12 h
[4]; Metabolism
  No. Metabolites: 2
  Where Metabolized: Liver, Intestine

## O=C(O)c1ccccc1O [Salicylic Acid]
[3]
  Water Solubility: High
[4]
  Plasma Levels: 150 to 300 µg/mL
  Plasma half-life: 2.5 h
[5]
  effect of local delivery at site of bone defect or injury: prevents new bone growth, degradation and resorption

## O=C(O)CCCCCCCCC(=O)O [Sebacic Acid]
[6]; oral
  Rat Oral LD50: 14,470 mg/kg

## O=C(O)CCC(=O)O [Succinic Acid]
[6]; in vivo, po
  Rat Oral LD50: 8,530 mg/kg

## CN1CC[C@]23c4c5ccc(O)c4O[C@H]2[C@@H](O)C=C[C@H]3[C@H]1C5 [morphine]
[7]; 1 mg injected into chronically-inflamed gum tissue
  pain relief: profound pain relief
[7]; intra-articular injection of 3 mg in RA patients
  pain relief: pain relief similar to that of 4 mg dexamethasone
